The values that follow are results of earlier work, collected in patent publication US10265547B2, “Internal ultrasound gel” (SmileSonica Inc., priority 2012, dated 2019).

SMILES strings stand for the structures.

In data set [1] the test system is lactobacillus bulgaricus. As to conditions: Makinen and Soderling 1981.
The subject of data set [2] is Escherichia coli. The following applies: Makinen and Soderling 1981.
The test system of data set [3] is salmonella typhi. The following applies: Makinen and Soderling 1981.
The subject of data set [4] is clostridium butyricum. As to conditions: Makinen and Soderling 1981.
For data set [5], the system named is saccharomyces cerevisiae. As to conditions: Makinen and Soderling 1981.
The subject of data set [6] is Streptococcus mutans. As to conditions: xylitol in the range of 0.1% to 5%.
The subject of data set [7] is Streptococcus pneumonia. As to conditions: nasopharyngeal flora, Kontiokari et al. 1995.
For data set [8] the following is noted: average adult of 70 kg.

For `OC[C@@H](O)[C@H](O)[C@@H](O)CO` [xylitol], the growth inhibition entry in data set [1], in data set [2], in data set [3], in data set [4], in data set [5] and in data set [7] was “inhibiting the growth” each time. For the same compound, in data set [6], the “reduction of oral bacterial flora” value is “reduce oral bacterial flora”.
For the compound `C/C=C/C=C/C(=O)[O-].[K+]` [potassium sorbate], in data set [8], the “acceptable daily ingestion intake” value is on record as 875 mg daily.
